Test results from patent publication US8080377B2, “Method for confirming the exposure on chrysene” (Korea Institute of Science and Technology, priority 2008, dated 2011).

Tests used:
HepG2 cells = experiment: 44 k whole human genome oligo microarray gene expression, cells treated with chrysene at IC20 for 48 hours (Cy5) vs untreated control (Cy3); type: cell-based
Protocol: HepG2 cells were distributed on a 100 mm dish at the concentration of 6×10^6 cell/ml, to which chrysene was treated for 48 hours at the concentration that was determined in Example <1-2>. Total RNA was extracted from the cells using trizol reagent (Invitrogen life technologies, USA) according to the manufacturer's instruction and the extracted RNA was purified by using RNeasy mini kit (Qiagen, USA). The genomic DNA was eliminated during the purification of RNA using RNase-free DNase set (Qiagen, USA). The total RNA was quantified by spectrophotometer and purity was measured by Agilent 2100 Bioanalyzer (Agilent Technologies, USA) and agarose gel-electrophoration.
For oligo-microarray analysis, cDNA was synthesized using the total RNA extracted from the experimental group treated with chrysene obtained in Example <2-1>. 30 μg of the total RNA and 2 μg (1 μg/μl) of oligo (dT) primer were mixed, followed by reaction for 10 minutes at 65° C. Then, the reaction mixture was put in ice, followed by annealing. Reagents were mixed as shown in Table 1 for reverse transcription of the RNA.
The total RNA extracted from the control HepG2 cell line was labeled with Cy3-dUTP (green), while the RNA extracted from the experimental HepG2 cell line treated with chrysene was labeled with Cy5-dUTP (red). At this time, the two samples were mixed and purified by Microcon YM-30 column (Millipore, USA).
Hybridization and washing were performed according to the instruction of GeneoCheck Co., Ltd. Hybridization was performed in a 62° C. oven for 12 hours. At this time, 44 k whole human genome oligo microarray (Agilent, USA) was used as a DNA microarray chip. After washing (with 2×SSC/0.1% SDS for 2 minutes, with 1×SSC for 3 minutes, with 0.2×SSC for 2 minutes), the slide was centrifuged at 800 rpm for 3 minutes and dried.
Scanning of the hybridized images on the slide was performed by using Genepix 4000B (Axon Instruments, USA). Fluorescence images of the chip washed to eliminate non-binding genes were obtained by laser fluorescence scanner. At this time, green fluorescent images indicated the activity of the gene expressed in the control, whereas red fluorescent images indicated the activity of the gene expressed specifically in the experimental group. […] The scanned images were analyzed by GenePix 4.1 software (Axon Instruments, USA) to calculate the gene expression rate. Based on the obtained data, marker genes for chrysene were selected (see FIG. 2).

[1] = animal tests; cited from earlier work

## c1ccc2c(c1)ccc1c3ccccc3ccc21 [chrysene]
HepG2 cells; ACHE (NM_015831)
  Ratio of intermediate value: 6.223
HepG2 cells; ADA (NM_000022)
  Ratio of intermediate value: 5.213
HepG2 cells; ADM (NM_001124)
  Ratio of intermediate value: 2.186
HepG2 cells; ADORA2B (AK172851)
  Ratio of intermediate value: 2.249
HepG2 cells; APOL2 (AF324224)
  Ratio of intermediate value: 2.105
HepG2 cells; APOL3 (NM_145641)
  Ratio of intermediate value: 3.196
HepG2 cells; AXL (NM_021913)
  Ratio of intermediate value: 3.268
HepG2 cells; B2M (NM_004048)
  Ratio of intermediate value: 2.006
HepG2 cells; BATF (BQ053419)
  Ratio of intermediate value: 2.221
HepG2 cells; BTG3 (BC011957)
  Ratio of intermediate value: 2.74
HepG2 cells; C1R (NM_001733)
  Ratio of intermediate value: 2.893
HepG2 cells; C1S (NM_001734)
  Ratio of intermediate value: 3.018
HepG2 cells; C4A (NM_001002029)
  Ratio of intermediate value: 2.002
HepG2 cells; C20orf139 (H18681)
  Ratio of intermediate value: 4.383
HepG2 cells; CCL3 (CR591007)
  Ratio of intermediate value: 3.347
HepG2 cells; CCL3L1 (BF662985)
  Ratio of intermediate value: 2.839
HepG2 cells; CCL14 (NM_004167)
  Ratio of intermediate value: 5.103
HepG2 cells; CCL20 (BC020698)
  Ratio of intermediate value: 2.199
HepG2 cells; CCL23 (NM_005064)
  Ratio of intermediate value: 2.761
HepG2 cells; CCND3 (AK096276)
  Ratio of intermediate value: 2.292
HepG2 cells; CD3D (NM_000732)
  Ratio of intermediate value: 54.94
HepG2 cells; CD9 (NM_001769)
  Ratio of intermediate value: 4.153
HepG2 cells; CD58 (NM_001779)
  Ratio of intermediate value: 2.794
HepG2 cells; CD79B (AK223210)
  Ratio of intermediate value: 15.33
HepG2 cells; CDKN2B (NM_078487)
  Ratio of intermediate value: 2.559
HepG2 cells; CSF1 (BC021117)
  Ratio of intermediate value: 4.788
HepG2 cells; CXCL12 (AK090482)
  Ratio of intermediate value: 2.842
HepG2 cells; DDX58 (NM_014314)
  Ratio of intermediate value: 2.333
HepG2 cells; DKFZp451C2311 (AL832451)
  Ratio of intermediate value: 2.639
HepG2 cells; DNAJA2 (AF116720)
  Ratio of intermediate value: 10.94
HepG2 cells; DNAJB2 (BC040494)
  Ratio of intermediate value: 2.053
HepG2 cells; DNAJB4 (AB209922)
  Ratio of intermediate value: 2.872
HepG2 cells; DUSP1 (AK127679)
  Ratio of intermediate value: 2.383
HepG2 cells; DUSP13 (NM_001007271)
  Ratio of intermediate value: 7.031
HepG2 cells; E2F7 (NM_203394)
  Ratio of intermediate value: 3.647
HepG2 cells; EBI3 (NM_005755)
  Ratio of intermediate value: 5.607
HepG2 cells; ELF4 (NM_001421)
  Ratio of intermediate value: 4.316
HepG2 cells; F2RL1 (NM_005242)
  Ratio of intermediate value: 2.258
HepG2 cells; F8 (NM_000132)
  Ratio of intermediate value: 2.415
HepG2 cells; FAM14A (NM_032036)
  Ratio of intermediate value: 2.706
HepG2 cells; FOS (BX647104)
  Ratio of intermediate value: 2.287
HepG2 cells; FOSL1 (NM_005438)
  Ratio of intermediate value: 5.643
HepG2 cells; GPX1 (NM_201397)
  Ratio of intermediate value: 2.85
HepG2 cells; GPX2 (BE512691)
  Ratio of intermediate value: 2.014
HepG2 cells; HLA-DOA (NM_002119)
  Ratio of intermediate value: 4.209
HepG2 cells; HRAS (NM_005343)
  Ratio of intermediate value: 2.3
HepG2 cells; HSPA4L (NM_014278)
  Ratio of intermediate value: 4.71
HepG2 cells; HSPA8 (NM_006597)
  Ratio of intermediate value: 2.313
HepG2 cells; HSPCA (AJ890082)
  Ratio of intermediate value: 2.544
HepG2 cells; ICOSLG (CB055213)
  Ratio of intermediate value: 3.644
HepG2 cells; IL4R (NM_000418)
  Ratio of intermediate value: 2.254
HepG2 cells; IL11 (NM_000641)
  Ratio of intermediate value: 4.521
HepG2 cells; ITCH (NM_031483)
  Ratio of intermediate value: 2.301
HepG2 cells; KLF6 (NM_001008490)
  Ratio of intermediate value: 2.3
HepG2 cells; KLRC3 (NM_002260)
  Ratio of intermediate value: 2.942
HepG2 cells; LIF (NM_002309)
  Ratio of intermediate value: 8.088
HepG2 cells; LY96 (BM918324)
  Ratio of intermediate value: 5.439
HepG2 cells; MAPK11 (BC027933)
  Ratio of intermediate value: 2.256
HepG2 cells; MAPK13 (AB209586)
  Ratio of intermediate value: 2.326
HepG2 cells; MBL2 (NM_000242)
  Ratio of intermediate value: 2.755
HepG2 cells; MGC3207 (AL834276)
  Ratio of intermediate value: 2.364
HepG2 cells; MR1 (AF031469)
  Ratio of intermediate value: 7.059
HepG2 cells; NALP6 (AY154461)
  Ratio of intermediate value: 2.392
HepG2 cells; NFKBIA (NM_020529)
  Ratio of intermediate value: 2.242
HepG2 cells; NINJ1 (NM_004148)
  Ratio of intermediate value: 2.107
HepG2 cells; NK4 (BF569086)
  Ratio of intermediate value: 3.138
HepG2 cells; NR3C1 (U25029)
  Ratio of intermediate value: 2.274
HepG2 cells; OAS1 (NM_016816)
  Ratio of intermediate value: 3.711
HepG2 cells; PAI, PAI1, PAI-1, PLANH1 (BX649164)
  Ratio of intermediate value: 29.05
HepG2 cells; PARD6B (BC060847)
  Ratio of intermediate value: 2.507
HepG2 cells; PARD6G (BC060797)
  Ratio of intermediate value: 3.502
HepG2 cells; PGF (NM_002632)
  Ratio of intermediate value: 2.436
HepG2 cells; PPM1D (NM_003620)
  Ratio of intermediate value: 3.647
HepG2 cells; PPP1R9B (BC008564)
  Ratio of intermediate value: 3.169
HepG2 cells; PRNP (NM_000311)
  Ratio of intermediate value: 2.313
HepG2 cells; PROCR (NM_006404)
  Ratio of intermediate value: 24.53
HepG2 cells; PTGES (AK127663)
  Ratio of intermediate value: 3.184
HepG2 cells; PTP4A1 (BC040303)
  Ratio of intermediate value: 3.183
HepG2 cells; RAE1 (AK097024)
  Ratio of intermediate value: 2.921
HepG2 cells; RPS6KA1 (BC014966)
  Ratio of intermediate value: 2.11
HepG2 cells; S100A6 (BM904612)
  Ratio of intermediate value: 5.938
HepG2 cells; SAA4 (BG564326)
  Ratio of intermediate value: 4.076
HepG2 cells; SASH1 (NM_015278)
  Ratio of intermediate value: 2.368
HepG2 cells; SEMA7A (AF069493)
  Ratio of intermediate value: 2.531
HepG2 cells; SERTAD1 (AK074652)
  Ratio of intermediate value: 4.835
HepG2 cells; SFN (BC023552)
  Ratio of intermediate value: 2.525
HepG2 cells; SGK2 (BC006523)
  Ratio of intermediate value: 4.65
HepG2 cells; STAT1 (NM_007315)
  Ratio of intermediate value: 2.268
HepG2 cells; TAP1 (BX648013)
  Ratio of intermediate value: 4.08
HepG2 cells; TAPBP (NM_172208)
  Ratio of intermediate value: 7.02
HepG2 cells; TGFA (NM_003236)
  Ratio of intermediate value: 2.487
HepG2 cells; TLR3 (BC068487)
  Ratio of intermediate value: 2.541
HepG2 cells; TMPRSS6 (NM_153609)
  Ratio of intermediate value: 2.118
HepG2 cells; TP53I11 (BC045666)
  Ratio of intermediate value: 6.008
HepG2 cells; TREM2 (NM_018965)
  Ratio of intermediate value: 43.67
HepG2 cells; TRIM22 (BC035582)
  Ratio of intermediate value: 13.79
HepG2 cells; VWF (NM_000552)
  Ratio of intermediate value: 2.476
HepG2 cells; XLKD1 (NM_006691)
  Ratio of intermediate value: 10.06
HepG2 cells; ZAP70 (AL832287)
  Ratio of intermediate value: 3.83
HepG2 cells; ZCSL2 (AK092040)
  Ratio of intermediate value: 2.303
HepG2 cells; out of 44,000 genes
  genes identified to be down-regulated (2.0 fold less): 0.82%
  genes identified to be up-regulated (2.0 fold higher): 0.73%
  number of genes identified to be down-regulated: 361 genes
  number of genes identified to be up-regulated: 323 genes
[1]
  absorption rate through skin: very slow
  absorption via oral pathway: absorbed
